Test results: ChEMBL document CHEMBL1201862, “PubChem BioAssay data set” (2004)
The source made the active and inactive calls.

Legend:
[1] = molecular target: Induced myeloid leukemia cell differentiation protein Mcl-1 (Homo sapiens, UniProt Q07820); assay: blockers of MCL1 binding to BIM peptide – biochemical, fluorescence polarization, BIM-BH3 peptide, 1536-well, dose response (AID 2217)
Bcl-2-like protein 1 = Bcl-2-like protein 1 (Homo sapiens, UniProt Q07817); assay: blockers of BCLXL peptide binding – biochemical, fluorescence polarization, 1536-well, selectivity assay for MCL1 inhibitor project, dose response (AID 2218)
Chain of Bcl-2-like protein 1 (Q07817 whole entry): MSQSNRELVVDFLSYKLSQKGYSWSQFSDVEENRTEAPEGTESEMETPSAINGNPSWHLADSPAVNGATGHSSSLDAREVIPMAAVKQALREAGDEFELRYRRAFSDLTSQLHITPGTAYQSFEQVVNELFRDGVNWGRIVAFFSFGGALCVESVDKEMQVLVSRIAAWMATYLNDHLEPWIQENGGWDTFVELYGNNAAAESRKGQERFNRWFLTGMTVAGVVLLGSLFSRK

NADPH oxidase 1 = molecular target: T1, NADPH oxidase 1 (Homo sapiens, UniProt Q9Y5S8); assay: Late-stage luminescence-based cell-based dose response assay to identify inhibitors of NADPH oxidase 1 (NOX1): Purchased analogs 2.; type: functional
T1 sequence (Q9Y5S8 whole entry): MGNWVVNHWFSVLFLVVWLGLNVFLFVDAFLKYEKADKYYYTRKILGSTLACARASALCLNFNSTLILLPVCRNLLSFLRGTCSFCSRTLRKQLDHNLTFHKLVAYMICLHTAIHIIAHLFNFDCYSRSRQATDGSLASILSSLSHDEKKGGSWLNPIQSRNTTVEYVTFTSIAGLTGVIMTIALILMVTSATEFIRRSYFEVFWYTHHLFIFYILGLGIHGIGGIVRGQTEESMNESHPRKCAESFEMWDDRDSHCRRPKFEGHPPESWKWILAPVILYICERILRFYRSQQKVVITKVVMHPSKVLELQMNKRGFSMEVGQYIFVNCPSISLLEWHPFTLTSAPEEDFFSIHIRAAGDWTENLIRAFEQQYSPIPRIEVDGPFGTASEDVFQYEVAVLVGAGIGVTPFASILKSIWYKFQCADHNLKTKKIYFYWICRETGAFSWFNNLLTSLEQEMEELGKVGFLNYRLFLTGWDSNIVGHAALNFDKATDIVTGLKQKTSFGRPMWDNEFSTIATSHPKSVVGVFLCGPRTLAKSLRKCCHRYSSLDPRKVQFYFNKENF

Leucine aminopeptidase = molecular target: T2, Leucine aminopeptidase (Plasmodium falciparum 3D7, UniProt Q8IL11); assay: P. falciparum M17LAP inhibitors, primary screen, biochemical, fluorogenic H-Leu-NHMec substrate, 1536-well (AID 1619); type: functional
T2 sequence (Q8IL11 whole entry): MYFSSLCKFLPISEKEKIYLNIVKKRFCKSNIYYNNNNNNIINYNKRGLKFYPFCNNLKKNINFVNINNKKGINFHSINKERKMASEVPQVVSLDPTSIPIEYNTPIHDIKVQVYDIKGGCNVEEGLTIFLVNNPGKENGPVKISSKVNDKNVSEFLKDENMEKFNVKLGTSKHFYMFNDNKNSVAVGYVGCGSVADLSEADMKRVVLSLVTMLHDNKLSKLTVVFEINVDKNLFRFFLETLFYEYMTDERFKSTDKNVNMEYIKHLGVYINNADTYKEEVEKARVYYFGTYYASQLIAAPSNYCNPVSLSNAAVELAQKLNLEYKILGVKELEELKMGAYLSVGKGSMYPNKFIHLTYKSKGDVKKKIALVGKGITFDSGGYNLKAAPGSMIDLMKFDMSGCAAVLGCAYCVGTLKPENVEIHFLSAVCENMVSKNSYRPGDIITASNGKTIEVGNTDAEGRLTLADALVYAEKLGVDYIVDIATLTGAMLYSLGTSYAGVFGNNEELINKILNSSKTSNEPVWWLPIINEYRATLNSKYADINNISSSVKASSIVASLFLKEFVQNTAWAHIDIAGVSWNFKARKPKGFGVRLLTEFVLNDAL

Procathepsin L = Procathepsin L (Homo sapiens, UniProt P07711); assay: CTSL1 protease inhibition – biochemical, QFRET, 1536-well, counter-screen for M1/M17 aminopeptidase inhibitor project, dose response (AID 2214)
Chain of Procathepsin L (P07711 whole entry): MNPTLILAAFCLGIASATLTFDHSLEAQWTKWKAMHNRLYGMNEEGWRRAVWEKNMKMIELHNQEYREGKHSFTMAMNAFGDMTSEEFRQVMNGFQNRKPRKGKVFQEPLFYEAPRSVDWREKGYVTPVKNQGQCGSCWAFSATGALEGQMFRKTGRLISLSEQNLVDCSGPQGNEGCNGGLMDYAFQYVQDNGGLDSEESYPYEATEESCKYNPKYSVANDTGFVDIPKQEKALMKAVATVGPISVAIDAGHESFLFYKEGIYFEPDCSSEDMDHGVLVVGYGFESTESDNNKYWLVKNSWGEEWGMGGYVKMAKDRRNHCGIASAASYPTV

Aspartyl aminopeptidase = Aspartyl aminopeptidase (Plasmodium falciparum 3D7, UniProt Q8I2J3); assay: Counterscreen for inhibitors of M1 and M17 aminopeptidases: QFRET-based biochemical high throughput dose response assay for inhibitors of the Plasmodium falciparum M18 Aspartyl Aminopeptidase (PFM18AAP). [Related PubChem assays: 1619 (Screening assay (M17LAP inhibitors).), 1445 (Screening assay (M1AAP inhibitors).)]
Chain of Aspartyl aminopeptidase (Q8I2J3 whole entry): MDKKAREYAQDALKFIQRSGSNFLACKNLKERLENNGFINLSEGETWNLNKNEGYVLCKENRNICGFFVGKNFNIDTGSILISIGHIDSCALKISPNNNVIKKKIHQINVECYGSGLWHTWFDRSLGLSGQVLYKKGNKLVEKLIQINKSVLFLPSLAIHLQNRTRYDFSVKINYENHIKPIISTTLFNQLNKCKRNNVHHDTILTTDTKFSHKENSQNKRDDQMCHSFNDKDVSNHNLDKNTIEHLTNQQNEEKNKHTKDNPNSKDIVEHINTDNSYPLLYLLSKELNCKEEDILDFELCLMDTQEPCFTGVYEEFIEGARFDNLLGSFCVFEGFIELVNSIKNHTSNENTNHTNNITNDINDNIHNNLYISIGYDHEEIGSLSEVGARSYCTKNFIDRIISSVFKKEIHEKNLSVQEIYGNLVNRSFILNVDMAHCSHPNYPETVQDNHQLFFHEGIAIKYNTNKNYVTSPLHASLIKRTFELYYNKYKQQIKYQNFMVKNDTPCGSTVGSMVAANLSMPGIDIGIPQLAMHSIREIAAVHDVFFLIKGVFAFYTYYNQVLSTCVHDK

H4 = assay: Luminescence Cell-Based Dose Response HTS to Identify Activators of 5'UTR Stem-Loop Driven Prion Protein mRNA Translation in H4 Neuroglioblastoma Cells. [Related pubchem assays: 1829 (Project Summary), 1814 (Primary HTS)]; type: functional; conditions: Homo sapiens
[2] = Luminescence Cell-Based Dose Response HTS to Identify Activators of Luciferase Translation or Activity in H4 […] Cells. [Related pubchem assays: 1829 (Project Summary), 1814 (Primary HTS)]; type: functional
[3] = Luminescence Cell-Based Dose Response to Identify Activators of 5'UTR Stem-Loop Driven Prion Protein mRNA Translation in H4-C Neuroglioblastoma Cells. [Related pubchem assays: 1829 (Project Summary), 1814 (Primary HTS)]; type: functional
[4] = Luminescence Cell-Based Dose Confirmation to Identify Activators of 5'UTR Stem-Loop Driven Alpha-Synuclein mRNA Translation in H4 Neuroglioblastoma Cells. [Related pubchem assays: 1829 (Project Summary), 1814 (Primary HTS)]; type: functional
[5] = Luminescence Cell-Based Dose Response to Identify Activators of Luciferase Translation or Activity in H4-C Neuroglioblastoma Cells. [Related pubchem assays: 1829 (Project Summary), 1814 (Primary HTS)]; type: functional
[6] = molecular target: T3, Corticotropin-releasing factor receptor 2/Corticotropin-releasing factor-binding protein (Homo sapiens, UniProt P24387+Q13324); assay: activators of CRF receptor 2 with binding protein – uHTS hits, confirmation (AID 602473); type: functional; conditions: read-out: EC50_Mean
T3 sequence (Q13324 whole entry): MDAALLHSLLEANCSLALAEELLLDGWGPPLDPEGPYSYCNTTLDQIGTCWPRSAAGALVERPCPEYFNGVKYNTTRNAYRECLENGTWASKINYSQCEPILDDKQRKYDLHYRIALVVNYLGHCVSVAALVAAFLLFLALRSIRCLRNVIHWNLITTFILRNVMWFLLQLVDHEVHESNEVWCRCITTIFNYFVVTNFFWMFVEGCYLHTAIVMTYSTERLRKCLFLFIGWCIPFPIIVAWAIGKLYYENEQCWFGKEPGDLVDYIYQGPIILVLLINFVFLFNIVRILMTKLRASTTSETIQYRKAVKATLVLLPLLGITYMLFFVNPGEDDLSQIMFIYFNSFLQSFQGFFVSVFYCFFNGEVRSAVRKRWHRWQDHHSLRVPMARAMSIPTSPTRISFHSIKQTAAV
T3 sequence (P24387 whole entry): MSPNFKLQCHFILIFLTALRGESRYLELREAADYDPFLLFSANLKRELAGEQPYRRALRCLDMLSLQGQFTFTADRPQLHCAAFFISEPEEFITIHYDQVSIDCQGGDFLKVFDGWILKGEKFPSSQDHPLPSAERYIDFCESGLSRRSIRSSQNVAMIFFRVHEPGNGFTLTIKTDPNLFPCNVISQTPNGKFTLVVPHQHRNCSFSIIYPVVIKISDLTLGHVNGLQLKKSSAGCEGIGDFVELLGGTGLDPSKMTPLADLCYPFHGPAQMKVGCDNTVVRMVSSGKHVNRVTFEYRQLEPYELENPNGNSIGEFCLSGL

[7] = M. tuberculosis growth inhibition, HTS (AID 449762); type: functional
[8] = molecular target: Voltage-gated inwardly rectifying potassium channel KCNH2 (Homo sapiens, UniProt Q12809); assay: concentration-dependent hERG rescue from blockers – cell-based, thallium flux, dose response (AID 2121); type: ADME
Chain of Voltage-gated inwardly rectifying potassium channel KCNH2 (Q12809 whole entry): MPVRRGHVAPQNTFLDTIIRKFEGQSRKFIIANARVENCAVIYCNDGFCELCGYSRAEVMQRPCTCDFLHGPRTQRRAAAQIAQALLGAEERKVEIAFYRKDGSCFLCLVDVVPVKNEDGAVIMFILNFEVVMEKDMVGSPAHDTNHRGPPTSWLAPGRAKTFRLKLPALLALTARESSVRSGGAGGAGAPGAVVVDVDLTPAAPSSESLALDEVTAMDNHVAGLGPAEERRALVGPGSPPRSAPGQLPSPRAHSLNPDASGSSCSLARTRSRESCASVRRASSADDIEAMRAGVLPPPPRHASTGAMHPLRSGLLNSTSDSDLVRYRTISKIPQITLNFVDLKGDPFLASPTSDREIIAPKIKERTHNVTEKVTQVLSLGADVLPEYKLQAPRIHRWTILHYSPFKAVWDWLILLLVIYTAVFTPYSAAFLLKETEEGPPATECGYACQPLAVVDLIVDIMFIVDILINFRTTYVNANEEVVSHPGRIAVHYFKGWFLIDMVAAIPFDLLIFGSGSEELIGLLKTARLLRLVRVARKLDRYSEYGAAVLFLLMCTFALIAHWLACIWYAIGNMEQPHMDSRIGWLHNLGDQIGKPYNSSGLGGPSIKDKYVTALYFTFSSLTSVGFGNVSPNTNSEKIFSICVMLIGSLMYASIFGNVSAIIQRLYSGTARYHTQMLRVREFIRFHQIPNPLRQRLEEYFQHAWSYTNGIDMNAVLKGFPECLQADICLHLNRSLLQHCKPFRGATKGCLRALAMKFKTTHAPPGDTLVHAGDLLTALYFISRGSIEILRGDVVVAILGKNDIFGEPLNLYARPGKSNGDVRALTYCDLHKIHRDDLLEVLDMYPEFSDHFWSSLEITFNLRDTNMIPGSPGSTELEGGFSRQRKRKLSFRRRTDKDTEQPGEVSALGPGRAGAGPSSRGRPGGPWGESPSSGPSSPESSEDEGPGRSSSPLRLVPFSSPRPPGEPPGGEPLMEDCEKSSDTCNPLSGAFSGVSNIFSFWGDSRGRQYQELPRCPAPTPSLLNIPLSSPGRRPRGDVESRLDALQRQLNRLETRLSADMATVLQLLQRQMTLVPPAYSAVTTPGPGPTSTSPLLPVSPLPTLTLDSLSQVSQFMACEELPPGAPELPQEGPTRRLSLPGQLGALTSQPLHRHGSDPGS

cells = type: functional
Streptococcus = assay: GAS UMAA2166 growth inhibition – luminescence, BacTiterGlo, counter-screen for streptokinase expression inhibitor project, dose response (AID 1915); type: functional, organism-based;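 also: potency for reduction of bacterial viability or growth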
[9] = Luminescent dose response cell-based high throughput screening assay for inhibitors of the Janus kinase 2 mutant JAK2V617F. [Related pubchem assays: 1446 (Primary screen.), 1521 (Confirmation assay.), 1486 (Counter screen.)]; type: functional
Streptokinase A = molecular target: T4, Streptokinase A (Streptococcus pyogenes serotype M1, UniProt P10520); assay: viability-normalized secreted streptokinase activity reduction – plasminogen activation absorbance, OD405, dose response (AID 1914); type: functional, Streptococcus pyogenes M1 GAS;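 also: secreted streptokinase activity via plasminogen activation per viability signal from cell pellet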
T4 sequence (P10520 whole entry): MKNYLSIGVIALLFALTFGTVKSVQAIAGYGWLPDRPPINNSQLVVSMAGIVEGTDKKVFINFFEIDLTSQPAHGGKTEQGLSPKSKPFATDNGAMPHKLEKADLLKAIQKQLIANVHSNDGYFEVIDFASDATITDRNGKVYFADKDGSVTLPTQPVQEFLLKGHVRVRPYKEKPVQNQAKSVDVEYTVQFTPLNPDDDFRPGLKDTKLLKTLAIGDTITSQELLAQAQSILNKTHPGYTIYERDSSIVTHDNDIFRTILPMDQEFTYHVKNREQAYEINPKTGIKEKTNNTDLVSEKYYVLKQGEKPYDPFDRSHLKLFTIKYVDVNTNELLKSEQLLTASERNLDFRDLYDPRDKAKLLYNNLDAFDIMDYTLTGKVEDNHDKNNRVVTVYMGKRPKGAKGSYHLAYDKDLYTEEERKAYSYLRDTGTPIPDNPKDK

[10] = tested on: Streptococcus sp. 'group A'; assay: Streptococcus pyogenes SK(-)GAS viability under kanamycin – luminescence, BacTiterGlo, confirmation, counter-screen for streptokinase expression inhibitor project, dose response (AID 1900); type: functional, organism-based

Chain of Induced myeloid leukemia cell differentiation protein Mcl-1 (Q07820 whole entry): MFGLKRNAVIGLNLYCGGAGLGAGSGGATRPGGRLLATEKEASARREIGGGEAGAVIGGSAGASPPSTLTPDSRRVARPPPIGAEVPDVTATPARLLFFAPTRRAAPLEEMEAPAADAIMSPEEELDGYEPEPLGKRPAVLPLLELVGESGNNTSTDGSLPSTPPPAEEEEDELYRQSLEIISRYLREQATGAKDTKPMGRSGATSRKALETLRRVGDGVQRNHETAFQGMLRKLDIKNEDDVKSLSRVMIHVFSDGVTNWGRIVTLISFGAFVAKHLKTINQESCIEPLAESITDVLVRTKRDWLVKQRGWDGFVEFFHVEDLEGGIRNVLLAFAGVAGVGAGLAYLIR

## Cc1ccc(-c2csc3ncn(CC#N)c(=O)c23)cc1C
[1]
  IC50: > 109 µM (not active)
Bcl-2-like protein 1
  IC50: > 109 µM (not active)

## Cc1cc(Cl)ccc1NC(=S)NNC(=S)Nc1ccc(Cl)cc1C
NADPH oxidase 1
  IC50: 3.51 µM (active)

## O=C(O)C1CC=CCC1C(=O)Nc1cccc(Cl)c1 (centres undefined)
Leucine aminopeptidase
  IC50: 6.23 µM (active)
Procathepsin L
  IC50: > 59.6 µM (not active)
Aspartyl aminopeptidase
  IC50: > 73.5 µM (not active)

## S=C(c1ccc(-c2ccc(Br)cc2)o1)N1CCOCC1
H4
  EC50: 18.6 µM (inconclusive)
[2]
  EC50: < 0.1 µM (active)
[3]
  EC50: 0.507 µM (active)
[4]
  EC50: 0.251 µM (active)
[5]
  EC50: 0.378 µM (active)

## CCOc1ccc2nc(/N=C/c3nc(-c4ccccc4)oc3O)sc2c1
[6]
  EC50: 14.6 µM (active)
[7]
  IC50: > 100 µM (active)
[8]
  EC50: 1.69 µM (active)
cells
  IC50: 3.76 µM (active)

## O=C(Oc1cccc2c(O)cccc12)c1ccccc1
Streptococcus
  EC50: > 150 µM (not active)
[9]
  IC50: 7.47 µM (active)
Streptokinase A
  EC50: 63.7 µM (active)
[10]
  EC50: 29 µM (active)
